Experimental findings from PubChem BioAssay (NCI) are described below.

Some test systems named below: HCT-15 colon; T-47D breast; COLO 205 colon; RPMI-8226 leukemia; U251 CNS; ACHN renal; MALME-3M melanoma; M14 melanoma; SW-620 colon; MOLT-4 leukemia.
What all share (assay): NCI tumour cell line growth inhibition, 48 h

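Growth conditions: 96-well plates. Treatment: test compound, 48 hours, 5 concentrations. Analysis: linear interpolation between bracketing concentrations; unreached endpoints set to highest concentration. GI50: concentration for 50% inhibition of growth. TGI marks complete inhibition of growth.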

Consider `C[C@H](c1ccc(Cl)cc1[N+](=O)[O-])N1C(=O)c2cc(I)ccc2NC(=O)[C@H]1c1ccc(Cl)cc1`, for which the GI50 in the test on HCT-15 colon was > 100 µM; in the test with T-47D breast, 5.37 µM; in the test with COLO 205 colon, > 100 µM; in the test with RPMI-8226 leukemia it was > 100 µM; with U251 CNS it was > 100 µM; with ACHN renal, > 100 µM. For the same compound, the GI50 with MALME-3M melanoma is > 100 µM; with M14 melanoma, 85.4 µM; in the test with SW-620 colon, > 100 µM; with MOLT-4 leukemia, 8.76 µM. Also, the TGI in the test on HCT-15 colon, in the test with T-47D breast, with COLO 205 colon, in the test on RPMI-8226 leukemia, in the test with U251 CNS and in the test on ACHN renal was > 100 µM in each case. Also, the TGI with MALME-3M melanoma, in the test on M14 melanoma, in the test with SW-620 colon and with MOLT-4 leukemia was > 100 µM each time.

For `CC1SC(c2cccc(Cl)c2)N(NC(=O)C(O)c2ccccc2)C1=O` (stereo not given), the GI50 in the test on HCT-15 colon is > 100 µM; with T-47D breast, > 100 µM; in the test on COLO 205 colon, > 100 µM; in the test on RPMI-8226 leukemia, 43.2 µM; in the test with U251 CNS it was > 100 µM; with ACHN renal it was > 100 µM. Also, the GI50 in the test on MALME-3M melanoma, in the test with M14 melanoma, in the test on SW-620 colon and in the test on MOLT-4 leukemia was > 100 µM throughout. Further, the TGI in the test on HCT-15 colon, with T-47D breast, in the test with COLO 205 colon, in the test with RPMI-8226 leukemia, in the test on U251 CNS and in the test with ACHN renal was > 100 µM in each case. The TGI in the test with MALME-3M melanoma, with M14 melanoma, in the test on SW-620 colon and with MOLT-4 leukemia was > 100 µM in each case.

For `CN1CCN(Cc2ccc(NC(=O)c3cncc(C#Cc4ncc5ccccn45)c3)cc2C(F)(F)F)CC1`, the GI50 with HCT-15 colon was 1.2 µM; with T-47D breast, 1.6 µM; with COLO 205 colon it was 0.561 µM; in the test on RPMI-8226 leukemia, 0.858 µM; in the test with U251 CNS it was 2.89 µM; in the test on ACHN renal, 0.967 µM. The GI50 was 0.772 µM in the test on MALME-3M melanoma, 1.01 µM in the test with M14 melanoma, 0.842 µM with SW-620 colon and 0.892 µM with MOLT-4 leukemia. For the same compound, the TGI in the test with HCT-15 colon was found to be 7.4 µM; in the test with T-47D breast, 6.76 µM; in the test with COLO 205 colon it was 1.39 µM; in the test on RPMI-8226 leukemia it was 4.15 µM; in the test on U251 CNS, 6.39 µM; in the test with ACHN renal it was 3.8 µM. The TGI with MALME-3M melanoma worked out at 3.6 µM; in the test with M14 melanoma it was 3.98 µM; with SW-620 colon it was 3.12 µM; in the test with MOLT-4 leukemia, 5.82 µM.

As for `CCCCCCCCCCCCCCCC(N)c1ccccc1` (stereo not given), the GI50 with HCT-15 colon was 1.67 µM; in the test with T-47D breast, 1.56 µM; with COLO 205 colon, 1.68 µM; with RPMI-8226 leukemia it was 2.09 µM; with U251 CNS it was 1.68 µM; with ACHN renal, 1.79 µM. Further, the GI50 is 1.6 µM with MALME-3M melanoma, 1.7 µM with M14 melanoma, 1.61 µM in the test with SW-620 colon and 1.58 µM with MOLT-4 leukemia. The TGI was 3.09 µM in the test with HCT-15 colon; 3.08 µM with T-47D breast; 3.14 µM in the test on COLO 205 colon; 4.66 µM in the test on RPMI-8226 leukemia; 3.2 µM in the test with U251 CNS; 3.34 µM in the test on ACHN renal. Moreover, the TGI in the test with MALME-3M melanoma amounted to 3.28 µM; in the test with M14 melanoma, 3.15 µM; in the test with SW-620 colon it was 3.19 µM; in the test with MOLT-4 leukemia, 3.42 µM.

Take `CCCCCCCCC(=O)NCCN(CCN)C(=O)CCCCCCCC`: the TGI in the test on HCT-15 colon is 10.3 µM; in the test with T-47D breast, 32.9 µM; in the test on COLO 205 colon, 6.72 µM; in the test with RPMI-8226 leukemia, 6.25 µM; in the test with U251 CNS it was 9.26 µM; in the test on ACHN renal it was 19.2 µM. Besides, the TGI in the test with MALME-3M melanoma amounted to 33.6 µM; with M14 melanoma it was 22 µM; with SW-620 colon it was 6.31 µM; in the test with MOLT-4 leukemia, 8.57 µM.

With `O=C1C=C(OCC=C(Cl)Cl)C(=O)c2ccccc21`, the GI50 was 7.05 µM with HCT-15 colon; 2.4 µM with T-47D breast; 4.39 µM with COLO 205 colon; 0.955 µM with RPMI-8226 leukemia; 2.41 µM with U251 CNS; 7.02 µM in the test on ACHN renal. Besides, the GI50 is 2.18 µM in the test with MALME-3M melanoma, 3.73 µM in the test with M14 melanoma, 3.51 µM in the test with SW-620 colon and 2.34 µM with MOLT-4 leukemia. The TGI in the test with HCT-15 colon is > 100 µM; in the test with T-47D breast it was > 29.6 µM; with COLO 205 colon it was 12.1 µM; in the test with RPMI-8226 leukemia it was > 20.8 µM; with U251 CNS it was 13.8 µM; with ACHN renal, 99.7 µM. Besides, the TGI is 6.11 µM with MALME-3M melanoma, 30.2 µM in the test on M14 melanoma, 11.1 µM in the test with SW-620 colon and > 24 µM with MOLT-4 leukemia.

For `CC(=O)Nc1cc(CN2CCCCC2)c(O)c2ncccc12`, the TGI in the test on HCT-15 colon was > 100 µM; with T-47D breast, > 100 µM; in the test on COLO 205 colon, > 100 µM; in the test on RPMI-8226 leukemia, 51.1 µM; in the test on U251 CNS it was 42 µM; with ACHN renal it was 72.2 µM. Also, the TGI is 69.4 µM in the test on MALME-3M melanoma, 68.2 µM with M14 melanoma, > 100 µM in the test on SW-620 colon and 43.1 µM in the test on MOLT-4 leukemia.
